Common to all, as to type: biochemical
Assay [1] concerns the target T1, WT EZH2 (Homo sapiens (Human), UniProt Q15910). The assay is described as follows: WT EZH2 nucleosome assay (10X SAM, high SAM conditions). The conditions noted are these: 15 uM SAM, Ki app from competitive inhibition fit.
For assay [2], the target named is T1, WT EZH2. The assay is described as follows: WT EZH2 nucleosome assay. The conditions noted are these: PRC2 4-protein complex 4 nM, 1.5 μM SAM, HeLa oligonucleosomes. The protocol: The genes for EZH2, EED, SUZ12, and RBBP4 proteins were cloned into pBacPAK9 vectors (Clontech). RBBP4 was FLAG tagged on the N-terminal end. The baculovirus expressions of these proteins were used to co-infect SF9 insect cells. Insect cell pellets were lysed in a buffer containing 25 mM Tris pH8.0, 300 mM NaCl, 0.5 mM TCEP, complete EDTA-free protease inhibitor (Roche), 0.1% NP-40. The supernatant from the lysate was incubated with FLAG® M2 antibody resin (Sigma). The resin was washed on the chromatography column and eluted with 0.2 mg/ml FLAG peptide. The elute was incubated with omnicleave nucleases (Epicentre Technologies) at 4° C. overnight, then concentrated and loaded onto a Superdex 200 (GE Healthcare) column. The Superdex 200 column was eluted with 25 mM Tris pH8.0, 150 mM NaCl, 0.5 mM TCEP. Fractions containing the PRC2 complex were pooled.
A. Compound preparation • 1.
B. Reagent preparation • 1. […] Dilute TCA to 20% in DI water
C. Enzyme reaction • 1. […] Some compounds were tested under high SAM conditions.
D. Data analysis • 1. IC50 values were determined by fitting the data to a 4-parameter IC50 equation using proprietary curve fitting software. • 2. For compounds tested under high SAM conditions, Ki^app values were obtained by fitting the dose response curve to a model for competitive inhibition using proprietary curve fitting software. Preparation of HeLa Oligonucleosomes: Reagents • Cell Pellet: 15 L HeLa S3 (Accelgen)+6 L HeLa S3 (in house) • Mnase (Worthington Biochemicals) Equipment • SW-28 Rotor • Dounce Homogenizer/B Pestle Buffers • Lysis: 20 mM Hepes pH 7.5, 0.25M Sucrose, 3 mM MgCl2, 0.5% Nonidet P-40, 0.5 mM TCEP, 1 Roche Protease Tablet • B: 20 mM Hepes pH7.5, 3 mM MgCl2, 0.5 mM EDTA, 0.5 mM TCEP, 1 Roche Protease Tablet • MSB: 20 mM Hepes pH7.5, 0.4 M NaCl, 1 mM EDTA, 5% v/v Glycerol, 0.5 mM TCEP, 0.2 mM PMSF • LSB: 20 mM Hepes pH7.5, 0.1M NaCl, 1 mM EDTA, 0.5 mM TCEP, 0.2 mM PMSF • NG: 20 mM Hepes pH7.5, 1 mM EDTA, 0.4 m NaCl, 0.2 mM PMSF, 0.5 mM TCEP • Storage: 20 mM Hepes pH7.5, 1 mM EDTA, 10% Glycerol, 0.2 mM PMSF, 0.5 mM TCEP Protocol

The target in assay [3] is EZH2 Mutant Y641N (Homo sapiens (Human), UniProt Q15910, Y641N). The assay is described as follows: EZH2 Mutant Y641N nucleosome assay. The conditions noted are these: PRC2 4-protein complex 6 nM, 1.5 μM SAM, HeLa oligonucleosomes.
Chain of EZH2 Mutant Y641N (Q15910 whole entry Y641N, looked up): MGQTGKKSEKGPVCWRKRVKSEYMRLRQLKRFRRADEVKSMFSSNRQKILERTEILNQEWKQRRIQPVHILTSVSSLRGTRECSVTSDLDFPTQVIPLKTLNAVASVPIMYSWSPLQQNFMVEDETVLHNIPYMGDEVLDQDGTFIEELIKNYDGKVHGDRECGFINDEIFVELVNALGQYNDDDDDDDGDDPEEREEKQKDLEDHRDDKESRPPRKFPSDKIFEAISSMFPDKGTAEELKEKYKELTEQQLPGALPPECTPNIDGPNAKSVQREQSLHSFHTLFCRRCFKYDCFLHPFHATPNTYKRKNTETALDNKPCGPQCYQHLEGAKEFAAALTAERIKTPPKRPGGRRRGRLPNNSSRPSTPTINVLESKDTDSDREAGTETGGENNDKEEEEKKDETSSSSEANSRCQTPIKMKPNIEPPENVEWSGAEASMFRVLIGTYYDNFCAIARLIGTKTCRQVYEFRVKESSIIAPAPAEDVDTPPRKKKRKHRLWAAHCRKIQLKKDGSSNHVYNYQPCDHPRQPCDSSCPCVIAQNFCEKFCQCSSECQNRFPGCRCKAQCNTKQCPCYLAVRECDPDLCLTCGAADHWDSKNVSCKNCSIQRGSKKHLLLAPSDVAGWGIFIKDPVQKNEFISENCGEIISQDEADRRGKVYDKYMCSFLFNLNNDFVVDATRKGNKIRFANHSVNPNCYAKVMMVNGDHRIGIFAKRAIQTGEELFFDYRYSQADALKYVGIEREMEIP
Chain of EZH2 Mutant Y641N (O75530 whole entry partner, looked up): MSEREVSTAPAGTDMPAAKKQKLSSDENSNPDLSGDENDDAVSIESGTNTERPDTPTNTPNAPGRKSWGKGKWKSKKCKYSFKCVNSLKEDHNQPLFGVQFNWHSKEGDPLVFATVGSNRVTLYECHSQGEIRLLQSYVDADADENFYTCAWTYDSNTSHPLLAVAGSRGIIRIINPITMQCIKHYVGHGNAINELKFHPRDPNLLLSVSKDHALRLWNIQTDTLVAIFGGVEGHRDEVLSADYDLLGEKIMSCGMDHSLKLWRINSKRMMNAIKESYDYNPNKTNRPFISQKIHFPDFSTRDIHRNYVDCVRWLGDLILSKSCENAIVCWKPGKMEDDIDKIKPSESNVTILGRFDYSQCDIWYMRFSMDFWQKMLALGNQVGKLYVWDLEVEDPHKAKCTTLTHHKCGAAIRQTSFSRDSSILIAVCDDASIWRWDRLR
Chain of EZH2 Mutant Y641N (Q15022 whole entry partner, looked up): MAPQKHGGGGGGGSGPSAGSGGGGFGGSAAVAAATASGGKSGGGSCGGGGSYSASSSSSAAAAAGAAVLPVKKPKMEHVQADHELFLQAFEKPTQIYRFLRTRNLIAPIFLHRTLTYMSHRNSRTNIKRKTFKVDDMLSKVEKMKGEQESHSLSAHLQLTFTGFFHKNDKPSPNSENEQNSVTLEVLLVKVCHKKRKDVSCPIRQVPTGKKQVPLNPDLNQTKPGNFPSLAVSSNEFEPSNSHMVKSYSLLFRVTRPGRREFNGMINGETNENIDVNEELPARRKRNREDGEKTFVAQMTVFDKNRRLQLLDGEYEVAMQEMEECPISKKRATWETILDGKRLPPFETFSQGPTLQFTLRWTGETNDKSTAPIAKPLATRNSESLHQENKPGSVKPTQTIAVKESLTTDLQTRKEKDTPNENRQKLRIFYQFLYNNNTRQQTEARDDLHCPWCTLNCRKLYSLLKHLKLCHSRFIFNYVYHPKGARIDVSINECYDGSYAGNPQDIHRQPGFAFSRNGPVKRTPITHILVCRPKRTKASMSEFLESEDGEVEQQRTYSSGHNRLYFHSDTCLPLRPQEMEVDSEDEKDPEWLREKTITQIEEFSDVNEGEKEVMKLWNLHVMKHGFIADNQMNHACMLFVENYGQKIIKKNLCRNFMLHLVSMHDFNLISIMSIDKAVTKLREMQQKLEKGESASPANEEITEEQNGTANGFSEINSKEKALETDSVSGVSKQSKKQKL
Chain of EZH2 Mutant Y641N (Q09028 whole entry partner, looked up): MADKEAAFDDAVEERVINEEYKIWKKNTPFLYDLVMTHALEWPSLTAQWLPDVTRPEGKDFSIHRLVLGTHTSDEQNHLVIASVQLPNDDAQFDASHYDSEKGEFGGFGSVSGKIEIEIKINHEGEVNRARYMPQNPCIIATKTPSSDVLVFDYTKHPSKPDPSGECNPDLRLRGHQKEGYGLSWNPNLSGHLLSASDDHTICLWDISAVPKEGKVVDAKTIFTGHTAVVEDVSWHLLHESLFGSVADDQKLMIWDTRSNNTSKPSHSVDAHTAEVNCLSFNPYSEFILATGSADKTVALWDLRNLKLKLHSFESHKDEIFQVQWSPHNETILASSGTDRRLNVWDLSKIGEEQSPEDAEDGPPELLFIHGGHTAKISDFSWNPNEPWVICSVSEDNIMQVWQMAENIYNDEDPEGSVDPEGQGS
The mark [4] stands for this setting: WT EZH2 Nucleosome assay IC50 (μM).
[5] abbreviates: EZH2 Mutant Y641N Nucleosome assay IC50 (μM).
Where [6] appears, read: read-out: WT EZH2 Nucleosome assay (10X SAM) Ki.
Where [7] appears, read: read-out: WT EZH2 Nucleosome assay IC50.
The mark [8] stands for this setting: read-out: EZH2 Mutant Y641N Nucleosome assay IC50.

Read-outs that look alike come from different tables or passages of the source.

T1 sequence (Q15910 whole entry, looked up): as the sequence (Q15910 whole entry Y641N, looked up) above, with N641Y counted along it
T1 sequence (O75530 whole entry partner, looked up): as the sequence (O75530 whole entry partner, looked up) above
T1 sequence (Q15022 whole entry partner, looked up): as the sequence (Q15022 whole entry partner, looked up) above
T1 sequence (Q09028 whole entry partner, looked up): as the sequence (Q09028 whole entry partner, looked up) above

For orientation: IC50 means the concentration that inhibits the measured activity by half. `COC(c1cc(Cl)c2c(c1Cl)C(=O)N(Cc1c(C)cc(C)[nH]c1=O)CC2)C1CCN(C(=O)CO)CC1` (single isomer, unassigned) [Example 36, 5,8-dichloro-2-[(4,6-dimethyl-2-oxo-1,2-dihydropyridin-3-yl)methyl]-7-{[1-(hydroxyacetyl)piperidin-4-yl](methoxy)methyl}-3,4-dihydroisoquinolin-1(2H)-one] registered a Ki in assay [1] (WT EZH2 Nucleosome assay (10X SAM) Ki (μM)) of 0.136 µM. Moreover, the IC50 in assay [2] (setting [4]) came out at 0.105 µM; in assay [3] (setting [5]), 0.443 µM.

Take `Cc1cc(C)c(CN2CCc3c(Cl)cc([C@H](C)CO)c(Cl)c3C2=O)c(=O)[nH]1` [Example 18]: in assay [1] (setting [6]), the Ki stood at 0.115 µM. The IC50 is 0.126 µM in assay [2] (setting [7]) and 0.995 µM in assay [3] (setting [8]).

`Cc1cc(C)c(CN2CCc3c(Cl)cc([C@@H](C)CO)c(Cl)c3C2=O)c(=O)[nH]1` [Example 19]: the Ki in assay [1] (setting [6]) came to 0.01 µM. In addition, the values for the half-maximal inhibitory concentration (IC50) in assay [2] (setting [7]) and in assay [3] (setting [8]) were 0.013 µM and 0.132 µM, respectively.

In the case of `Cc1cc(C)c(CN2CCc3c(Cl)cc(C(C)C#N)c(Cl)c3C2=O)c(=O)[nH]1` (racemic) [Example 32], the figures for the half-maximal inhibitory concentration (IC50) in assay [2] (setting [7]) and in assay [3] (setting [8]) were 0.093 µM and 1.13 µM, respectively.

As to `Cc1cc(C)c(CN2CCc3c(Cl)cc(CC4CCN(C(=O)CO)CC4)c(Cl)c3C2=O)c(=O)[nH]1` [Example 23], the figures for the IC50 in assay [2] (setting [7]) and in assay [3] (setting [8]) were 0.009 µM and 0.067 µM, respectively.

Take `CCC(O)c1cc(Cl)c2c(c1Cl)C(=O)N(Cc1c(C)cc(C)[nH]c1=O)CC2` (single isomer, unassigned) [Example 27]: the half-inhibitory concentration (IC50) came to 0.037 µM in assay [2] (setting [4]) and 0.3 µM in assay [3] (setting [5]).

Turning to `Cc1cc(C)c(CN2CCc3c(Cl)cc(C(C)CCO)c(Cl)c3C2=O)c(=O)[nH]1` (single isomer, unassigned) [Example 40], the figures for the 50% inhibitory concentration (IC50) in assay [2] (setting [7]) and in assay [3] (setting [8]) were 0.006 µM and 0.024 µM, respectively.

Take `Cc1cc(C)c(CN2CCc3c(Cl)cc(CC(=O)O)c(Cl)c3C2=O)c(=O)[nH]1` [Example 22]: the values for the IC50 in assay [2] (setting [7]) and in assay [3] (setting [8]) were 7.82 µM and 95.2 µM, respectively.

Turning to `Cc1cc(C)c(CN2CCc3c(Cl)cc(C(CO)C4CCOCC4)c(Cl)c3C2=O)c(=O)[nH]1` (single isomer, unassigned) [Example 38], the IC50 in assay [2] (setting [4]) came out at 0.378 µM; in assay [3] (setting [5]) it was 0.74 µM.

For the compound `Cc1cc(C)c(CN2CCc3c(Cl)cc(C(C)CCO)c(Cl)c3C2=O)c(=O)[nH]1` (single isomer, unassigned) [Example 39], the concentration for half-maximal inhibition (IC50) in assay [2] (setting [7]) stood at 0.04 µM; in assay [3] (setting [8]), 0.242 µM.

The values above are taken from US10570121B2, “Substituted dihydroisoquinolinone compounds” (priority 2014, dated 2020).
